Source: patent publication US20150299125A1, “PRODRUG BIPYRIDYLAMINOPYRIDINES AS SYK INHIBITORS” (MERCK SHARP & DOHME CORP., priority 2012, published 2015)
Converted amounts (≈) assume the structure as drawn. Like-named read-outs stand apart in the source and are kept apart here.

Experiments:
[1] = biological target: T1, recombinant human GST-Syk (Homo sapiens, UniProt P43405); test: Homogeneous Time-Resolved Fluorescence (HTRF) assay for the recombinant human Syk enzyme; format: biochemical; conditions: recombinant human GST-Syk 5 pM, ATP 25 μM, read-out: IC50
T1 construct: purchased Carna Biosciences 08-176
Description: Syk inhibition of the compounds of Formula (I) may be determined using the following assay protocol: Homogeneous Time-Resolved Fluorescence (HTRF) Assay for the Recombinant Human Syk Enzyme: A recombinant GST-hSyk fusion protein was used to measure potency of compounds to inhibit human Syk activity. […] Final volume of the reaction was 10 μL. Phosphorylation of the peptide was allowed to proceed for 45' at room temperature. To quench the reaction and detect the phosphorylated product, 2 nM of a Europium-anti-phosphotyrosine antibody (Perkin Elmer #AD0161) and 70 nM SA-APC (Perkin-Elmer #CR130-100) were added together in 15 mM Tris pH 7.5, 40 mM EDTA, 0.01% tween 20. Final volume of the quenching solution was 10 μL. The resulting HTRF signal was measured after 30 minutes on a EnVision (Perkin-Elmer) reader using a time-resolved fluorescence protocol.

[2] = Solubility in biorelevant fasted state simulated intestinal fluid (FaSSIF); format: physicochemical
Description: Solubility in Biorelevant Fasted State Simulated Intestinal Fluid (FaSSIF):
A 10 mM DMSO stock solution of compound to be tested is used. A 100 μM standard solution is generated by diluting 2.5 μL of the 10 mM stock solution with 247.5 μL of diluent (10% DMSO/10% MeCN/80% MeOH, v/v/v). A solubility solution is generated by diluting 5 μL of the 10 mM stock solution with 245 μL of FaSSIF (maximum solubility approximately 200 μM). […] The equilibrated solubility solution is filtered by centrifugation (3 minutes at 4000 rpm) using a 0.45 µm filter with a polypropylene membrane. The standard solution and the filtered equilibrated solubility solution are analyzed by HPLC/DAD. The solubility value is calculated by the following equation:
Solubility=(Peak area of sample/Peak area of standard)(Standard concentration)

[3] = 25 °C, fassif, kinetic from dmso stock, Solubility

SMILES	IC50 [1]	solubility [2, 3]	solubility ([2]; read-out: Solubility)
Cc1cc(Nc2cc(C(F)F)ccn2)nc(-c2ccc([C@](C)(O)[C@H]3CC[C@H](C(=O)OCC[S@+](C)[O-])CC3)nc2)c1 (single isomer, unassigned) [Example 7-1b]	3.3 nM	52 µM (≈ 29.8 µg/mL)	–
Cc1cc(Nc2cc(C(F)F)ccn2)nc(-c2ccc([C@](C)(O)[C@H]3CC[C@H](C(=O)O[C@H]4CC[C@@H](N)CC4)CC3)nc2)c1 [Example 1-2, cis-4-Aminocyclohexyl trans-4-[(1R)-1-(6-{[4-(difluoromethyl)pyridin-2-yl]amino}-4-methyl-2,3′-bipyridin-6′-yl)-1-hydroxyethyl]cyclohexanecarboxylate]	4.2 nM	114 µM (≈ 66.1 µg/mL)	–
Cc1cc(Nc2cc(C(F)F)ccn2)nc(-c2ccc([C@](C)(O)[C@H]3CC[C@H](C(=O)O[C@H]4C[C@H](N)C4)CC3)nc2)c1 [Example 1-5, trans-3-Aminocyclobutyl trans-4-[(1R)-1-(6-{[4-(difluoromethyl)pyridin-2-yl]amino}-4-methyl-2,3′-bipyridin-6′-yl)-1-hydroxyethyl]cyclohexanecarboxylate]	4.4 nM	–	164 µM (≈ 90.5 µg/mL)
Cc1cc(Nc2cc(C(F)F)ccn2)nc(-c2ccc([C@](C)(O)[C@H]3CC[C@H](C(=O)OC[N+]4(C)CCC(F)(F)CC4)CC3)nc2)c1 [Example 5-13, 1-{[({trans-4-[(1R)-1-(6-{[4-(difluoromethyl)pyridin-2-yl]amino}-4-methyl-2,3′-bipyridin-6′-yl)-1-hydroxyethyl]cyclohexyl}carbonyl)oxy]methyl}-4,4-difluoro-1-methylpiperidinium]	1.3 nM	–	–
Cc1cc(Nc2cc(C(F)F)ccn2)nc(-c2ccc([C@](C)(O)[C@H]3CC[C@H](C(=O)OC[N+](C)(C)C(C)c4ccccc4)CC3)nc2)c1 (stereo partly drawn) [Example 5-15, N-{[({trans-4-[(1R)-1-(6-{[4-(difluoromethyl)pyridin-2-yl]amino}-4-methyl-2,3′-bipyridin-6′-yl)-1-hydroxyethyl]cyclohexyl}carbonyl)oxy]methyl}-N,N-dimethyl-1-phenylethanaminium]	< 0.5 nM	–	–
CCCC[N+](C)(CCCC)COC(=O)[C@H]1CC[C@H]([C@@](C)(O)c2ccc(-c3cc(C)cc(Nc4cc(C(F)F)ccn4)n3)cn2)CC1 [Example 5-18, N-butyl-N-{[({trans-4-[(1R)-1-(6-{[4-(difluoromethyl)pyridin-2-yl]amino}-4-methyl-2,3′-bipyridin-6′-yl)-1-hydroxyethyl]cyclohexyl}carbonyl)oxy]methyl}-N-methylbutan-1-aminium]	1.4 nM	–	–
Cc1cc(Nc2cc(C(F)F)ccn2)nc(-c2ccc([C@](C)(O)[C@H]3CC[C@H](C(=O)OC[N+]4(C)CCN(CCO)CC4)CC3)nc2)c1 [Example 5-28, 1-{[({trans-4-[(1R)-1-(6-{[4-(difluoromethyl)pyridin-2-yl]amino}-4-methyl-2,3′-bipyridin-6′-yl)-1-hydroxyethyl]cyclohexyl}carbonyl)oxy]methyl}-4-(2-hydroxyethyl)-1-methylpiperazin-1-ium]	2.9 nM	–	–
Cc1cc(Nc2cc(C(F)F)ccn2)nc(-c2ccc([C@](C)(O)[C@H]3CC[C@H](C(=O)OCn4ccnc4)CC3)nc2)c1 [Example 6-4, 1H-imidazol-1-ylmethyl trans-4-[(1R)-1-(6-{[4-(difluoromethyl)pyridin-2-yl]amino}-4-methyl-2,3′-bipyridin-6′-yl)-1-hydroxyethyl]cyclohexanecarboxylate]	–	156 µM (≈ 87.8 µg/mL)	–
Cc1cc(Nc2cc(C(F)F)ccn2)nc(-c2ccc([C@](C)(O)[C@H]3CC[C@H](C(=O)OCC[S+](C)[O-])CC3)nc2)c1 (stereo partly drawn) [Example 7-3, 2-(methylsulfinyl)ethyl trans-4-[(1R)-1-(6-{[4-(difluoromethyl)pyridin-2-yl]amino}-4-methyl-2,3′-bipyridin-6′-yl)-1-hydroxyethyl]cyclohexane-carboxylate]	3.3 nM	–	–
Cc1cc(Nc2cc(C(F)F)ccn2)nc(-c2ccc([C@](C)(O)[C@H]3CC[C@H](C(=O)OCOC(=O)OCCS(C)(=O)=O)CC3)nc2)c1 [Example 7-7, ({[2-(methylsulfonyl)ethoxy]carbonyl}oxy)methyl trans-4-[(1R)-1-(6-{[4-(difluoromethyl)pyridin-2-yl]amino}-4-methyl-2,3′-bipyridin-6′-yl)-1-hydroxyethyl]cyclohexane-carboxylate]	4.5 nM	–	–

Second part, the molecule after the results:

IC50 [1]	solubility [2, 3]	solubility ([2]; read-out: Solubility)	SMILES
24.7 nM	40 µM (≈ 25.7 µg/mL)	–	COCCN(C)C(=O)OC(C)OC(=O)[C@H]1CC[C@H]([C@@](C)(O)c2ccc(-c3cc(C)cc(Nc4cc(C(F)F)ccn4)n3)cn2)CC1 (single isomer, unassigned) [Example 4-1a]
1 nM	156 µM (≈ 101 µg/mL)	–	Cc1cc(Nc2cc(C(F)F)ccn2)nc(-c2ccc([C@](C)(O)[C@H]3CC[C@H](C(=O)OCOC(=O)OCC[S+](C)[O-])CC3)nc2)c1 (single isomer, unassigned) [Example 7-6]
27.7 nM	43 µM (≈ 24.5 µg/mL)	–	CSCCCOC(=O)[C@H]1CC[C@H]([C@@](C)(O)c2ccc(-c3cc(C)cc(Nc4cc(C(F)F)ccn4)n3)cn2)CC1 [Example 1-9, 3-(methylsulfanyl)propyl trans-4-[(1R)-1-(6-{[4-(difluoromethyl)pyridin-2-yl]amino}-4-methyl-2,3′-bipyridin-6′-yl)-1-hydroxyethyl] cyclohexanecarboxylate]
2.1 nM	57 µM (≈ 32.9 µg/mL)	–	Cc1cc(Nc2cc(C(F)F)ccn2)nc(-c2ccc([C@](C)(O)[C@H]3CC[C@H](C(=O)OCc4nccn4C)CC3)nc2)c1 [Example 1-11, (1-methyl-1H-imidazol-2-yl)methyl trans-4-[(1R)-1-(6-{[4-(difluoromethyl)pyridin-2-yl]amino}-4-methyl-2,3′-bipyridin-6′-yl)-1-hydroxyethyl] cyclohexanecarboxylate]
1.1 nM	–	–	CCCC[N+](CCCC)(CCCC)COC(=O)[C@H]1CC[C@H]([C@@](C)(O)c2ccc(-c3cc(C)cc(Nc4cc(C(F)F)ccn4)n3)cn2)CC1 [Example 5-4, N,N-dibutyl-N-{[({trans-4-[(1R)-1-(6-{[4-(difluoromethyl)pyridin-2-yl]amino}-4-methyl-2,3′-bipyridin-6′-yl)-1-hydroxyethyl]cyclohexyl}carbonyl)oxy]methyl}butan-1-aminium]
2.5 nM	–	–	CCCCCCCC[N+](CCCCCCCC)(CCCCCCCC)COC(=O)[C@H]1CC[C@H]([C@@](C)(O)c2ccc(-c3cc(C)cc(Nc4cc(C(F)F)ccn4)n3)cn2)CC1 [Example 5-8, N-{[({trans-4-[(1R)-1-(6-{[4-(difluoromethyl)pyridin-2-yl]amino}-4-methyl-2,3′-bipyridin-6′-yl)-1-hydroxyethyl]cyclohexyl}carbonyl)oxy]methyl}-N,N-dioctyloctan-1-aminium]
0.6 nM	–	–	Cc1cc(Nc2cc(C(F)F)ccn2)nc(-c2ccc([C@](C)(O)[C@H]3CC[C@H](C(=O)OC[N+]4(CC#N)CCCCC4)CC3)nc2)c1 [Example 5-16, 1-(cyanomethyl)-1-{[({trans-4-[(1R)-1-(6-{[4-(difluoromethyl)pyridin-2-yl]amino}-4-methyl-2,3′-bipyridin-6′-yl)-1-hydroxyethyl]cyclohexyl}carbonyl)oxy]methyl}piperidinium]
0.8 nM	–	–	CCOC(=O)C[N+](C)(C)COC(=O)[C@H]1CC[C@H]([C@@](C)(O)c2ccc(-c3cc(C)cc(Nc4cc(C(F)F)ccn4)n3)cn2)CC1 [Example 5-19, N-{[({trans-4-[(1R)-1-(6-{[4-(difluoromethyl)pyridin-2-yl]amino}-4-methyl-2,3′-bipyridin-6′-yl)-1-hydroxyethyl]cyclohexyl}carbonyl)oxy]methyl}-2-ethoxy-N,N-dimethyl-2-oxoethanaminium]
< 0.5 nM	–	–	Cc1cc(Nc2cc(C(F)F)ccn2)nc(-c2ccc([C@](C)(O)[C@H]3CC[C@H](C(=O)OC[N+](C)(C)CCc4ccccn4)CC3)nc2)c1 [Example 5-21, N-{[({trans-4-[(1R)-1-(6-{[4-(difluoromethyl)pyridin-2-yl]amino}-4-methyl-2,3′-bipyridin-6′-yl)-1-hydroxyethyl]cyclohexyl}carbonyl)oxy]methyl}-N,N-dimethyl-2-pyridin-2-ylethanaminium]
0.9 nM	–	–	CC[N+](CC)(COC(=O)[C@H]1CC[C@H]([C@@](C)(O)c2ccc(-c3cc(C)cc(Nc4cc(C(F)F)ccn4)n3)cn2)CC1)C1CCCCC1 [Example 5-22, N-{[({trans-4-[(1R)-1-(6-{[4-(difluoromethyl)pyridin-2-yl]amino}-4-methyl-2,3′-bipyridin-6′-yl)-1-hydroxyethyl]cyclohexyl}carbonyl)oxy]methyl}-N,N-diethylcyclohexanaminium]
1 nM	–	–	Cc1cc(Nc2cc(C(F)F)ccn2)nc(-c2ccc([C@](C)(O)[C@H]3CC[C@H](C(=O)OC[N+](C)(C4CCCCC4)C4CCCCC4)CC3)nc2)c1 [Example 5-24, N-cyclohexyl-N-{[({trans-4-[(1R)-1-(6-{[4-(difluoromethyl)pyridin-2-yl]amino}-4-methyl-2,3′-bipyridin-6′-yl)-1-hydroxyethyl]cyclohexyl}carbonyl)oxy]methyl}-N-methylcyclohexanaminium]
